Results on 45 molecules are retold here after patent US20260188423A1, “IDENTIFICATION OF CELL SURFACE ANTIGENS WHICH INDUCE T-CELL RESPONSES AND THEIR USES” (priority 2022, published 2026).

Data set [1] relates to CD8^+ T-cells. The following applies: log-fold change, cited from earlier work.
For data set [2], the system named is antigen-specific T-cell clone. The following applies: peptide pool, response attributed to the dominant epitope, cited from earlier work.
Data set [3] concerns peritoneal tumour biopsies. As to the kind of experiment: Transcriptome analysis of the Murcia patient's peritoneal tumour biopsies. To be noted: target of 2nd generation personalized vaccines.
Excerpt: All the putative 8-20 amino acids long epitopes were created from these proteins and used for designing the 2nd generation of personalized vaccines according to the invention. […] These antigens have different length and amino acid sequences. All selected peptide antigen contains multiple highly ranked epitopes (13-66) presented on the cell surface by the patient's HLA class I and class II molecules. The range of the potency score is indicated for the selected epitopes. Epitopes presented by the patient's HLA class I and class II molecules are indicated to induce CD8 and CD4 responses, respectively. As described in the invention, the potency of each epitope in the vaccines was calculated and indicated to inform the physician about the predicted efficacy of the personalised vaccines in the recipient.
The subject of data set [4] is peripheral mononuclear cells. Nature of the data set: ELISPOT of T-cell responses to vaccine peptides after 1st immunization of the breast cancer patient. To be noted: after the 1st immunization; for ELISpot: 5 days culture of PBMC from the patient. The format is in vivo, human. An excerpt:
In the prior art, HLA-binding based epitope selection methods have been used for vaccine development. The epitopes in the personal vaccines made for the breast cancer patient were selected to bind at least 3 HLAs of the subject as described in the published US patent application 2018/264094. […] The potency of T-cell responses against the tumor antigens were predicted by the system described above (using HLA class I EWS, HLA class II EWS and overall EWS). The potency of T-cell responses to the vaccine peptides after the 1st immunization were measured with ELISPOT assay after 5 days culture of the peripheral mononuclear cells isolated from a blood sample of the patient (Spots/10^6 PBMC).

Data set [5] deals with HeLa cells. Nature of the data set: Cellular uptake of fluorescent-labeled peptide vaccines, flow cytometry. The following applies: for cells taking up the vaccine: 40 μM, within 30 minutes; for cellular uptake (intensity of fluorescence) compared to control: flow cytometry, control without R8. The format is cell-based, human. Here is the method:
(§1) Methods: HeLa cells were seeded at a density of 200,000 cells per well in 6-well plates and allowed to grow for one day. On the second day, the cells were treated with the peptides at three different concentrations (2.5 μM, 10 μM, and 40 μM) for two different incubation times (15 minutes and 30 minutes). After the treatment, the cells were detached using trypsin, washed, and resuspended in PBS. The cells were then analyzed using a FACS Canto flow cytometer. A total of 30,000 events were acquired, and the percentage of fluorescent cells and fluorescent intensity (geometric mean and median) were determined through flow analysis.
as §1, with “Methods” for “Methods:”
On the technique in general: In flow cytometry, cells or beads pass a laser one at a time.

[6] abbreviates: ABF cohort individual BC10, Healthy.
Setting [7] is: ABF cohort individual AP0201, Hospitalized.
Setting [8] is: Subject 1327414, cohort Healthy.
Setting [9] is: Subject 1005699, cohort COVID-19-Acute.

Read-outs that look alike come from different tables or passages of the source.

Take “AADLDDFSKQL [SARS-COV-2 peptide of the ABF cohort data]”: the LFC in data set [1] (setting [6]) was 0.
For “ADLDDFSKQL [SARS-COV-2 peptide of the ABF cohort data]”, the LFC in data set [1] (setting [7]) was 0.
“AFPFTIYSL [SARS-COV-2 peptide of the ABF cohort data]”: the LFC in data set [1] (setting [7]) is recorded as 0.
With “AHAEETRKL [SARS-COV-2 peptide of the ABF cohort data]”, the LFC in data set [1] (setting [7]) is 0.
Turning to AIMTRCLAV, the Hits in data set [2] (setting [8]) is recorded as 1.
Take “ALLADKFPVL [SARS-COV-2 peptide of the ABF cohort data]”: the LFC in data set [1] (setting [7]) and in data set [1] (setting [6]) was 0 throughout.
Take “ALLAVFQSA [SARS-COV-2 peptide of the ABF cohort data]”: the LFC in data set [1] (setting [6]) is 0.
On to ALNTLVKQL, for which the Hits in data set [2] (setting [8]) is listed as 1.
Consider “ALQDAYYRA [SARS-COV-2 peptide of the ABF cohort data]”, for which the LFC in data set [1] (setting [6]) is 0.
Take “ALRKVPTDNY [SARS-COV-2 peptide of the ABF cohort data]”: in data set [1] (setting [6]), the LFC was 0.
Regarding “ALTCFSTQF [SARS-COV-2 peptide of the ABF cohort data]”, the LFC in data set [1] (setting [6]) was 0.
For the molecule “ALVYFLQSI [SARS-COV-2 peptide of the ABF cohort data]”, in data set [1] (setting [7]), the LFC is listed as 0.
Turning to “AMDEFIERY [SARS-COV-2 peptide of the ABF cohort data]”, the LFC in data set [1] (setting [6]) is given as 0.
As to “ANPKTPKYKF [SARS-COV-2 peptide of the ABF cohort data]”, the LFC in data set [1] (setting [7]) is 0.
As to “APFLYLYAL [SARS-COV-2 peptide of the ABF cohort data]”, the LFC in data set [1] (setting [7]) is given as 0.
As to “APHGVVFL [SARS-COV-2 peptide of the ABF cohort data]”, the LFC in data set [1] (setting [7]) is given as 0.
In the case of “APHGVVFLHV [SARS-COV-2 peptide of the ABF cohort data]”, the LFC in data set [1] (setting [7]) was 0.
For the molecule “APISAMVRM [SARS-COV-2 peptide of the ABF cohort data]”, in data set [1] (setting [6]), the LFC is reported as 0.
As for “APKEIIFL [SARS-COV-2 peptide of the ABF cohort data]”, in data set [1] (setting [6]), the LFC is 0.
Turning to AYILFTRFFYV, the Hits in data set [2] (setting [9]) is reported as 3; in data set [2] (setting [8]), 1.
The molecule BLTP2 displayed a Relative expression in data set [3] of 95.
For the molecule DLFMRIFTI, in data set [2] (setting [9]), the Hits is reported as 1.
Take ELIRQGTDY: the Hits in data set [2] (setting [9]) was 2.
In the case of FAYANRNRF, the Hits in data set [2] (setting [9]) is reported as 1.
Consider FCNDPFLGVY, for which the Hits in data set [2] (setting [9]) is 1.
As for FEYVSQPFL, in data set [2] (setting [9]), the Hits was 1.
For the molecule “FTSSRMSSFNRHMKTHTSEK [CTCFL long-peptide personal vaccine of the breast cancer patient]”, the ELISpot in data set [4] is recorded as 48 Spots/10^6 PBMC.
Consider “Fluoresc-EEKEIIVIKDTEKKDQS-RRRRRRRR-SQFNVPMLY-NH2 (fluorescein-EEKEIIVIKDTEKKDQSRRRRRRRRSQFNVPMLY-NH2) [AKAP-4-specific Personalized Vaccine, AKAP-4-specific VERDI Vaccine]”, for which, in data set [5] (HeLa cells), the “cells taking up the vaccine” value is 45%. In addition, the “cellular uptake (intensity of fluorescence) compared to control” value in data set [5] is “significantly higher uptake”.
On to “Fluoresc-THVDIRTLEDLLMGTL-RRRRRRRR-RAHYNIVTF-NH2 (fluorescein-THVDIRTLEDLLMGTLRRRRRRRRRAHYNIVTF-NH2) [HPV-specific Personalized Vaccine, E7 (HPV16)-specific VERDI Vaccine]”, for which, in data set [5] (HeLa cells), the “more peptide accumulated in each cell compared to the control vaccines (median fluorescence intensity)” value was “approximately 30%”. Besides, the “cells taking up the vaccine” value is “more than 50%” in data set [5] (HeLa cells) and 53% in data set [5] (HeLa cells, listed as HPV-specific vaccine). In data set [5], the “cellular uptake (intensity of fluorescence) compared to control” value was “significantly higher uptake”.
In the case of IELSLIDFYL, in data set [2] (setting [9]), the Hits is on record as 4.
Regarding ITLATCELY, the values for the Hits in data set [2] (setting [9]) and in data set [2] (setting [8]) were 12 and 1, respectively.
Regarding KEIIFLEGETL, the Hits in data set [2] (setting [8]) was 1.
“NEQDLVREEAQKMSSLLPTM [SPAG9 long-peptide personal vaccine of the breast cancer patient]”: the ELISpot in data set [4] is 0 Spots/10^6 PBMC.
Take NVFAFPFTIY: the Hits in data set [2] (setting [8]) was 19.
In the case of “QEESFSPTAMDAIFGSLSDE [MAGEAA long-peptide personal vaccine of the breast cancer patient]”, the ELISpot in data set [4] came out at 0 Spots/10^6 PBMC.
On the same count and under the same terms, then “RLDQLLRHVMNPLETLSITN [PRAME long-peptide personal vaccine of the breast cancer patient]”, with 66 Spots/10^6 PBMC; and “SDTKDYFMSKTLGIGRLKRP [FSIP1 long-peptide personal vaccine of the breast cancer patient]”, with 257 Spots/10^6 PBMC; and “SGSSYFVLANGHILPNSENA [FMRINB long-peptide personal vaccine of the breast cancer patient]”, with 130 Spots/10^6 PBMC.
For the molecule SVLLFLAFV, the Hits in data set [2] (setting [8]) is given as 5.
With “SVYADQVNIDYLMNRPQNLR [AKAP4 long-peptide personal vaccine of the breast cancer patient]”, the ELISpot in data set [4] was found to be 366 Spots/10^6 PBMC. In data set [4] (breast cancer patient), the “T cell responses (ELISPOT)” value is listed as 366 spots/million cells.
For “TLPPAWQPFLKDHRISTFKN [BIRC5 long-peptide personal vaccine of the breast cancer patient]”, the ELISpot in data set [4] was found to be 71 Spots/10^6 PBMC.
Regarding VASQSIIAY, the Hits in data set [2] (setting [9]) is recorded as 23; in data set [2] (setting [8]), 4.
As for VVFLHVTYV, the Hits is 1 in data set [2] (setting [9]) and 8 in data set [2] (setting [8]).
Consider WT1, for which the Relative expression in data set [3] amounted to 59.

B1: SPAG9 (protein, UniProt O60271 1-1321, looked up)
C-Jun-amino-terminal …: MELEDGVVYQEEPGGSGAVMSERVSGLAGSIYREFERLIGRYDEEVVKELMPLVVAVLENLDSVFAQDQEHQVELELLRDDNEQLITQYEREKALRKHAEEKFIEFEDSQEQEKKDLQTRVESLESQTRQLELKAKNYADQISRLEEREAELKKEYNALHQRHTEMIHNYMEHLERTKLHQLSGSDQLESTAHSRIRKERPISLGIFPLPAGDGLLTPDAQKGGETPGSEQWKFQELSQPRSHTSLKVSNSPEPQKAVEQEDELSDVSQGGSKATTPASTANSDVATIPTDTPLKEENEGFVKVTDAPNKSEISKHIEVQVAQETRNVSTGSAENEEKSEVQAIIESTPELDMDKDLSGYKGSSTPTKGIENKAFDRNTESLFEELSSAGSGLIGDVDEGADLLGMGREVENLILENTQLLETKNALNIVKNDLIAKVDELTCEKDVLQGELEAVKQAKLKLEEKNRELEEELRKARAEAEDARQKAKDDDDSDIPTAQRKRFTRVEMARVLMERNQYKERLMELQEAVRWTEMIRASRENPAMQEKKRSSIWQFFSRLFSSSSNTTKKPEPPVNLKYNAPTSHVTPSVKKRSSTLSQLPGDKSKAFDFLSEETEASLASRREQKREQYRQVKAHVQKEDGRVQAFGWSLPQKYKQVTNGQGENKMKNLPVPVYLRPLDEKDTSMKLWCAVGVNLSGGKTRDGGSVVGASVFYKDVAGLDTEGSKQRSASQSSLDKLDQELKEQQKELKNQEELSSLVWICTSTHSATKVLIIDAVQPGNILDSFTVCNSHVLCIASVPGARETDYPAGEDLSESGQVDKASLCGSMTSNSSAETDSLLGGITVVGCSAEGVTGAATSPSTNGASPVMDKPPEMEAENSEVDENVPTAEEATEATEGNAGSAEDTVDISQTGVYTEHVFTDPLGVQIPEDLSPVYQSSNDSDAYKDQISVLPNEQDLVREEAQKMSSLLPTMWLGAQNGCLYVHSSVAQWRKCLHSIKLKDSILSIVHVKGIVLVALADGTLAIFHRGVDGQWDLSNYHLLDLGRPHHSIRCMTVVHDKVWCGYRNKIYVVQPKAMKIEKSFDAHPRKESQVRQLAWVGDGVWVSIRLDSTLRLYHAHTYQHLQDVDIEPYVSKMLGTGKLGFSFVRITALMVSCNRLWVGTGNGVIISIPLTETNKTSGVPGNRPGSVIRVYGDENSDKVTPGTFIPYCSMAHAQLCFHGHRDAVKFFVAVPGQVISPQSSSSGTDLTGDKAGPSAQEPGSQTPLKSMLVISGGEGYIDFRMGDEGGESELLGEDLPLEPSVTKAERSHLIVWQVMYGNE
The molecule B1 registered a Relative expression in data set [3] of 70.
